Source: PubChem BioAssay (NCI)
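Each compound was tested at five concentrations against cells in 96-well plates for 48 hours. At the GI50, growth is halved. TGI: total growth inhibition.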

Experiments:
Assay in all cases: NCI tumour cell line growth inhibition, 48 h
CCRF-CEM leukemia = tested on: CCRF-CEM leukemia
SNB-19 CNS = tested on: SNB-19 CNS
SN12C renal = tested on: SN12C renal
SF-268 CNS = tested on: SF-268 CNS
OVCAR-4 ovarian = tested on: OVCAR-4 ovarian
RXF 393 renal = tested on: RXF 393 renal
OVCAR-3 ovarian = tested on: OVCAR-3 ovarian
PC-3 prostate = tested on: PC-3 prostate
T-47D breast = tested on: T-47D breast
BT-549 breast = tested on: BT-549 breast

| SMILES | TGI (CCRF-CEM leukemia) | TGI (SNB-19 CNS) | TGI (SN12C renal) | TGI (SF-268 CNS) | TGI (OVCAR-4 ovarian) | TGI (RXF 393 renal) | TGI (OVCAR-3 ovarian) | GI50 (CCRF-CEM leukemia) | GI50 (SNB-19 CNS) | GI50 (SN12C renal) | GI50 (SF-268 CNS) | GI50 (OVCAR-3 ovarian) | GI50 (OVCAR-4 ovarian) | GI50 (PC-3 prostate) | TGI (PC-3 prostate) | GI50 (T-47D breast) | TGI (T-47D breast) | GI50 (RXF 393 renal) | TGI (BT-549 breast) | GI50 (BT-549 breast) |
| --- | --- | --- | --- | --- | --- | --- | --- | --- | --- | --- | --- | --- | --- | --- | --- | --- | --- | --- | --- | --- |
| COc1ccc(C(=O)O/N=C2\CCCC\C2=C/c2ccccc2)cc1 | > 100 µM | > 100 µM | > 100 µM | > 100 µM | 95.8 µM |  |  |  |  |  |  |  |  |  |  |  |  |  |  |  |
| CC(=O)NNc1nc(C)c(C(/C=C/c2ccc(/C=C/C(=N\NC(=O)c3ccncc3)c3sc(NNC(C)=O)nc3C)cc2)=N/NC(=O)c2ccncc2)s1 | > 100 µM | > 100 µM | > 100 µM | > 100 µM |  | > 100 µM | > 100 µM |  |  |  |  |  |  |  |  |  |  |  |  |  |
| O=C(CC1Sc2ccccc2NC1=O)Nc1cccc(Cl)c1 (centres undefined) | > 100 µM | > 100 µM | > 100 µM | > 100 µM | > 100 µM | 80.4 µM | 86.8 µM |  |  |  |  |  |  |  |  |  |  |  |  |  |
| c1ccc([CH2][Sn]([CH2]c2ccccc2)([S]c2cccc3cccnc23)[S]c2cccc3cccnc23)cc1 | 0.686 µM | 2.07 µM | 1.19 µM | 2.3 µM | 0.422 µM |  | 0.383 µM | 0.102 µM | 0.853 µM | 0.303 µM | 0.489 µM | 0.136 µM | 0.172 µM |  |  |  |  |  |  |  |
| COC(=O)C1=Cc2cc3c(cc2[C@H](c2ccc4c(c2)OCO4)C1C(=O)OC)OCO3 (some centres undefined) | > 100 µM | > 100 µM | > 100 µM | > 100 µM | > 100 µM | > 100 µM | > 100 µM |  |  |  |  |  |  |  |  |  |  |  |  |  |
| Cc1c(C(=O)/C=C/c2ccco2)[n+](=O)c2ccccc2n1[O-] | > 100 µM | > 100 µM | > 100 µM | > 100 µM |  | > 100 µM | > 100 µM |  |  |  |  |  |  |  |  |  |  |  |  |  |
| COC(=O)C1=C(O)C(O)=C(C(=O)OC)CC1 | > 100 µM | > 100 µM | > 100 µM | > 100 µM | > 100 µM | 35.1 µM | > 100 µM |  |  |  |  |  |  |  |  |  |  |  |  |  |
| CN(C)C1(C#N)CCC2(CC1)OCCO2 | > 100 µM | > 100 µM | > 100 µM | > 100 µM | > 100 µM | > 100 µM | > 100 µM |  |  |  |  |  |  |  |  |  |  |  |  |  |
| COC(=O)C1=CC(=O)C(C(=O)Nc2ccc(OC)cc2)C(c2ccccc2)O1 (centres undefined) | > 100 µM | 42 µM | > 89.1 µM | 37.3 µM | > 77.9 µM | 52.8 µM | 58.8 µM |  |  |  |  |  |  |  |  |  |  |  |  |  |
| CCOC(=O)c1cc2c(n1Cc1cccc(OC)c1)-c1oncc1CC2 | > 100 µM | > 100 µM | > 100 µM | > 100 µM | > 100 µM | 35.9 µM | 2.66 µM | 1.43 µM | 4.72 µM | 13.5 µM | 18 µM | 0.38 µM | 9.6 µM | 5.19 µM | > 100 µM | 0.61 µM | 97.2 µM | 1.72 µM |  |  |
| CN1CCC(O)C(CNC23CC4CC(CC(C4)C2)C3)C1 (centres undefined) | > 100 µM | > 100 µM | > 100 µM | > 100 µM | > 100 µM | > 100 µM |  |  |  |  |  |  |  |  |  |  |  |  |  |  |
| CCC12C=CCN3CC[C@]4(C(=C(C(=O)OC)[C@@H]1Nc1ncnc5c1ncn5C1OC(COC(C)=O)C(OC(C)=O)C1OC(C)=O)Nc1ccccc14)C32 (some centres undefined) | 6.81 µM | 12.1 µM | 4.45 µM | 5.11 µM | 5.23 µM | 3.92 µM | 4.3 µM |  |  |  |  |  |  |  |  |  |  |  |  |  |
| CCc1nc(N)nc(N)c1-c1ccc(Cl)cc1 |  | > 100 µM | > 100 µM | > 100 µM | > 100 µM | > 100 µM | > 100 µM |  | 7.75 µM | 5.04 µM | 6.89 µM | 36.3 µM | 60 µM | 5.21 µM | > 100 µM | 45.5 µM | > 100 µM | 22.6 µM | > 100 µM |  |
| CCS[C@H]1NC(=O)C1[C@H](C)O[Si](C)(C)C(C)(C)C (some centres undefined) |  | > 100 µM | > 100 µM | > 100 µM | > 100 µM | > 100 µM | > 100 µM |  |  |  |  |  |  |  |  |  |  |  |  |  |
| Cc1ccc(S(=O)(=O)NCCCN(CCCNS(=O)(=O)c2ccc(C)cc2)S(=O)(=O)c2ccc(C)cc2)cc1 | > 100 µM | > 100 µM | > 100 µM | > 100 µM |  | > 100 µM | > 100 µM |  |  |  |  |  |  |  |  |  |  |  |  |  |
| CC(C)c1ccc2c(c1)CCC1C(C)(C)[C@@H](O)CC[C@]21C (some centres undefined) | > 100 µM | > 100 µM | 40.2 µM | > 100 µM | > 100 µM | 54.3 µM | > 100 µM |  |  |  |  |  |  |  |  |  |  |  |  |  |
| COc1cc[c]([Hg][Cl])cc1 | 5.4 µM | 16.6 µM | 6.17 µM | 13.3 µM | 11.5 µM | 3.14 µM |  | 1.06 µM | 4.59 µM | 2.51 µM | 3.27 µM |  | 1.96 µM | 16.2 µM | 31.8 µM | 1.68 µM | 4.47 µM | 1.76 µM | 9.16 µM | 2.97 µM |
| CC(C)NC(=O)OCc1nnn2c1C(OC(=O)NC(C)C)CC2 (centres undefined) |  | > 100 µM | > 100 µM |  | > 100 µM | > 100 µM | > 100 µM |  |  |  |  |  |  |  |  |  |  |  |  |  |
| CCOC(=O)C(C(=O)c1ccccc1-c1ccccc1C(=O)O)=P(c1ccccc1)(c1ccccc1)c1ccccc1 | 77.1 µM | 92 µM | > 100 µM | > 100 µM | 43.6 µM | 73.1 µM | 67 µM |  |  |  |  |  |  |  |  |  |  |  |  |  |
| CCOP1(=O)OCC2OC(n3cnc4c(N)ncnc43)C(O)C2O1 (centres undefined) |  | > 100 µM | > 100 µM | > 100 µM | > 100 µM | > 100 µM | > 100 µM |  |  |  |  |  |  |  | > 100 µM |  | > 100 µM |  | > 100 µM |  |
| COC(=O)C1Cc2c([nH]c3ccccc23)[C@H](CC(C)C)N1 (some centres undefined) | > 100 µM | > 100 µM | > 100 µM | > 100 µM |  | > 100 µM | > 100 µM |  |  |  |  |  |  |  |  |  |  |  |  |  |
| Cn1cc(-c2ccc3cc(-c4ccc(CC(=O)Nc5cc(C(C)(C)C)nn5C)cc4)cnc3c2)cn1 | > 100 µM | > 100 µM | > 100 µM | > 100 µM | > 100 µM |  | > 100 µM | 0.375 µM | 0.473 µM | 0.23 µM | 0.294 µM | 0.336 µM | 0.159 µM | 0.36 µM | > 100 µM | 0.209 µM | 4.81 µM |  | 2.38 µM | 0.262 µM |
